Test results: patent US11897880B2, “7,8-dihydrobenzo[e]pyrido[3,4-c]azocine-2,5(3H,6H)-dione derivatives useful as a factor XIa inhibitors” (Janssen Pharmaceutica NV, priority 2021, dated 2024)
Like-named read-outs stand apart in the source and are kept apart here.

Columns and labels:
[1] = biological target: human plasma kallikrein (Homo sapiens, UniProt P03952); assay: Kallikrein inhibition assay utilizing a quenched AMC peptide substrate (FLINT); type: biochemical; conditions: 30 min preincubation, 50 μM Z-Gly-Pro-Arg-AMC, 2 nM kallikrein
How it was run: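 Human plasma kallikrein (2 nM final) was preincubated 30 min at room temperature with compound (11-point 3-fold dilution, top 1 μM, 2% DMSO) in pH 7.5 Tris buffer with CaCl2, BSA and CHAPS. Z-Gly-Pro-Arg-AMC (50 μM final) fluorescence was read at 340/440 nm every 5 min for 30 min. IC50 came from a 4-parameter logistic fit.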

[2] = biological target: Factor XIa (Homo sapiens, UniProt P03951); assay: Factor XIa inhibition assay utilizing a fluorophore-quencher pair peptide substrate (FLINT); type: biochemical; conditions: for Ki: read-out: FXIa Ki; for IC50: read-out: FXIa IC50
How it was run: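 Enzyme preincubated 30 min at room temperature with compound (11-point 3-fold dilution, top 100 nM, 2% DMSO), then 15 μM 5Fam-KLTRAETV-K5Tamra substrate added. Buffer: 50 mM Tris pH 7.5, 100 mM NaCl, 5 mM CaCl2, 0.1 mg/mL BSA, 0.03% CHAPS. Fluorescence (485/520 nm) read kinetically over 30 min; IC50 from 4-parameter logistic fit.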

[3] = cells that print μM themselves in the nM column
[4] = cells that print μM themselves in the nM column, same assay conditions
[5] = 30 min preincubation, 5Fam-KLTRAETV-K5Tamra substrate 15 μM final, kinetic reads

Sequence of Factor XIa (P03951 388-625 limits assumed): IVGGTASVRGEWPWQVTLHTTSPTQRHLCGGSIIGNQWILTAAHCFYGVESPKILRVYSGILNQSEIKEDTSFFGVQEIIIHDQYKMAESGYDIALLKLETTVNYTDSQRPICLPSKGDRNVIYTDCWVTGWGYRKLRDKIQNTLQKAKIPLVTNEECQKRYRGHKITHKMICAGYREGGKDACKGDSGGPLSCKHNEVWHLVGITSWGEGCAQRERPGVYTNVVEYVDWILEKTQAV
Sequence of Factor XIa (P03951 19-387 partner limits assumed): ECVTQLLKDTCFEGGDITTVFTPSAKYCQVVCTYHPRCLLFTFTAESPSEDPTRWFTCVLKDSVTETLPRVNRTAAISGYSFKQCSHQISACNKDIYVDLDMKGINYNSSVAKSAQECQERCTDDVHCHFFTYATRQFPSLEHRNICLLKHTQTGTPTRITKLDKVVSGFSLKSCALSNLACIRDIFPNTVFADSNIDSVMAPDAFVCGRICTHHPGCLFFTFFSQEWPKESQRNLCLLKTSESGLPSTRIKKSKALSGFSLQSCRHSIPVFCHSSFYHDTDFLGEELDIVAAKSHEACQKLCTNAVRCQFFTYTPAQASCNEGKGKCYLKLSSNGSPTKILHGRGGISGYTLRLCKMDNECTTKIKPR
Sequence of human plasma kallikrein (P03952 391-638 limits assumed): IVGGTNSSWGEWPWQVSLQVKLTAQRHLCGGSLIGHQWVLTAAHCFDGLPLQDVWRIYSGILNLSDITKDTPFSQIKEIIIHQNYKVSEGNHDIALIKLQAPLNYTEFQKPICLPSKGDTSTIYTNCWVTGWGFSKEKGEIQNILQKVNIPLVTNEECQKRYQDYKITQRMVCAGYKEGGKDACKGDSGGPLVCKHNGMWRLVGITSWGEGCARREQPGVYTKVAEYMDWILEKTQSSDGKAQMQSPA
Sequence of human plasma kallikrein (P03952 20-390 partner limits assumed): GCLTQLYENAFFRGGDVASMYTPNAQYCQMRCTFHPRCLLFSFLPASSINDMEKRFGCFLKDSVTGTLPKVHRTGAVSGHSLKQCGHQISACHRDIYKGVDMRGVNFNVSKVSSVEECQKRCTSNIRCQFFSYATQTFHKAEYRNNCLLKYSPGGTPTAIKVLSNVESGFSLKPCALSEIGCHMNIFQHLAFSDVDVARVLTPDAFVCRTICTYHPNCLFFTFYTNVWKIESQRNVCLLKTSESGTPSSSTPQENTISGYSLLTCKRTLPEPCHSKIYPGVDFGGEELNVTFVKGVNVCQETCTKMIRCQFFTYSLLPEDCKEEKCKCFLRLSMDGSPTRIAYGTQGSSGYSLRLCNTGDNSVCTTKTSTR

| Compound | IC50 [1] [nM] | Ki [2, 3] [µM] | IC50 [2, 4] [µM] | IC50 [2, 5] [µM] | Ki [2] [µM] |
| --- | --- | --- | --- | --- | --- |
| CC1(C)Cc2ccc(Cl)c(F)c2-c2cc(=O)n3c(c2C(=O)N1)CC[C@H]3c1ncc(-c2ccc(N)nc2F)[nH]1 (single isomer, unassigned) [Compound 20, (S*)-12-(5-(6-amino-2-fluoropyridin-3-yl)-1H-imidazol-2-yl)-7-chloro-8-fluoro-3,3-dimethyl-3,4,13,14-tetrahydrobenzo[5,6]azocino[4,3-g]indolizine-1,10(2H,12H)-dione] | > 10000 | 3.83 | 7.65 |  |  |
| COC(=O)Nc1ccc(-c2cnc([C@H](CC3CC3)n3cc4c(cc3=O)-c3c(ccc(Cl)c3F)CC3(CC3)NC4=O)[nH]2)cc1 [Compound 61, Methyl (S)-(4-(2-(1-(11-chloro-12-fluoro-2,5-dioxo-2,5,6,8-tetrahydro-3H-spiro[benzo[e]pyrido[3,4-c]azocine-7,1′-cyclopropan]-3-yl)-2-cyclopropylethyl)-1H-imidazol-5-yl)phenyl)carbamate] | 120 |  |  | 0.001 | 0.0005 |
| Cn1cc(-c2cnc(C(CC3CC3)n3cc4c(cc3=O)-c3c(ccc(Cl)c3F)CC3(CC3)NC4=O)[nH]2)ccc1=O (single isomer, unassigned) [Compound 60, (R*)-11-chloro-3-(2-cyclopropyl-1-(5-(1-methyl-6-oxo-1,6-dihydropyridin-3-yl)-1H-imidazol-2-yl)ethyl)-12-fluoro-3H-spiro[benzo[e]pyrido[3,4-c]azocine-7,1′-cyclopropane]-2,5(6H,8H)-dione] | > 10000 | ~4.81 | ~9.61 |  |  |
| Nc1ccc(-c2cnc([C@H]3CCc4c5c(cc(=O)n43)-c3c(ccc(Cl)c3F)CCNC5=O)[nH]2)c(F)n1 (stereo in doubt) [Compound 47, (R*)-12-(5-(6-amino-2-fluoropyridin-3-yl)-1H-imidazol-2-yl)-7-chloro-8-fluoro-3,4,13,14-tetrahydrobenzo[5,6]azocino[4,3-g]indolizine-1,10(2H,12H)-dione] | 400 |  |  | 0.005 | 0.0025 |
| O=C1NC2(CC2)Cc2ccc(Cl)c(F)c2-c2cc(=O)n3c(c21)CC[C@@H]3c1ncc(-c2ccn3ccnc3c2)[nH]1 (stereo in doubt) [Compound 8, (R*)-7-chloro-8-fluoro-12-(5-(imidazo[1,2-a]pyridin-7-yl)-1H-imidazol-2-yl)-13,14-dihydro-2H-spiro[benzo[5,6]azocino[4,3-g]indolizine-3,1′-cyclopropane]-1,10(4H,12H)-dione] | 470 |  |  | 0.0019 | 0.0009 |
| O=C1NC2(CC2)Cc2ccc(Cl)c(F)c2-c2cc(=O)n3c(c21)CC[C@H]3c1ncc(-c2ccn3cnnc3c2)[nH]1 (stereo in doubt) [Compound 15, (S*)-12-(5-([1,2,4]triazolo[4,3-a]pyridin-7-yl)-1H-imidazol-2-yl)-7-chloro-8-fluoro-13,14-dihydro-2H-spiro[benzo[5,6]azocino[4,3-g]indolizine-3,1′-cyclopropane]-1,10(4H,12H)-dione] | > 10000 | 2.91 | 5.82 |  |  |
| Cc1nc2cc(-c3cnc([C@H]4CCc5c6c(cc(=O)n54)-c4c(ccc(Cl)c4F)CC4(CC4)NC6=O)[nH]3)ccc2s1 (stereo in doubt) [Compound 5, (R*)-7-chloro-8-fluoro-12-(5-(2-methylbenzo[d]thiazol-5-yl)-1H-imidazol-2-yl)-13,14-dihydro-2H-spiro[benzo[5,6]azocino[4,3-g]indolizine-3,1′-cyclopropane]-1,10(4H,12H)-dione] | 60 |  |  | 0.0021 | 0.001 |
| Nc1ccc(-c2cnc([C@@H]3CCc4c5c(cc(=O)n43)-c3c(ccc(Cl)c3F)CC3(CCC3)NC5=O)[nH]2)c(F)n1 (stereo in doubt) [Compound 32, (S*)-12-(5-(6-amino-2-fluoropyridin-3-yl)-1H-imidazol-2-yl)-7-chloro-8-fluoro-13,14-dihydro-2H-spiro[benzo[5,6]azocino[4,3-g]indolizine-3,1′-cyclobutane]-1,10(4H,12H)-dione] | 230 |  |  | 0.0007 | 0.0004 |
| O=C1NC2(CC2)Cc2ccc(Cl)c(F)c2-c2cc(=O)n3c(c21)CC[C@@H]3c1ncc(-c2ccc3cncn3c2)[nH]1 (stereo in doubt) [Compound 22, (R*)-7-chloro-8-fluoro-12-(5-(imidazo[1,5-a]pyridin-6-yl)-1H-imidazol-2-yl)-13,14-dihydro-2H-spiro[benzo[5,6]azocino[4,3-g]indolizine-3,1′-cyclopropane]-1,10(4H,12H)-dione] | > 10000 | 2.54 | 5.07 |  |  |
| Cn1cncc1-c1cnc([C@H]2CCc3c4c(cc(=O)n32)-c2c(ccc(Cl)c2F)CC2(CC2)NC4=O)[nH]1 (stereo in doubt) [Compound 51, (R*)-7-chloro-8-fluoro-12-(3′-methyl-3H,3H′-[4,4′-biimidazol]-2-yl)-13,14-dihydro-2H-spiro[benzo[5,6]azocino[4,3-g]indolizine-3,1′-cyclopropane]-1,10(4H,12H)-dione] | > 10000 | > 5 | > 10 |  |  |
| O=C1NC2(CC2)Cc2ccc(Cl)c(F)c2-c2cc(=O)n([C@@H](CC3CC3)c3ncc(-c4ccncc4)[nH]3)cc21 (single isomer, unassigned) [Compound 67, (S*)-11-chloro-3-(2-cyclopropyl-1-(5-(pyridin-4-yl)-1H-imidazol-2-yl)ethyl)-12-fluoro-3H-spiro[benzo[e]pyrido[3,4-c]azocine-7,1′-cyclopropane]-2,5(6H,8H)-dione] | 1390 |  |  | 0.0129 | 0.0064 |
| Cn1nncc1-c1cnc([C@H]2CCc3c4c(cc(=O)n32)-c2c(ccc(Cl)c2F)CC2(CC2)NC4=O)[nH]1 (stereo in doubt) [Compound 43, (R*)-7-chloro-8-fluoro-12-(5-(1-methyl-1H-1,2,3-triazol-5-yl)-1H-imidazol-2-yl)-13,14-dihydro-2H-spiro[benzo[5,6]azocino[4,3-g]indolizine-3,1′-cyclopropane]-1,10(4H,12H)-dione] | > 10000 | > 5 | > 10 |  |  |
| COC(=O)Nc1ccc(-c2cnc(C(CC3CC3)n3cc4c(cc3=O)-c3c(ccc(Cl)c3F)CC3(CC3)NC4=O)[nH]2)cc1 (single isomer, unassigned) [Compound 62, Methyl (R*)-(4-(2-(1-(11-chloro-12-fluoro-2,5-dioxo-2,5,6,8-tetrahydro-3H-spiro[benzo[e]pyrido[3,4-c]azocine-7,1′-cyclopropan]-3-yl)-2-cyclopropylethyl)-1H-imidazol-5-yl)phenyl)carbamate] | 5370 |  |  | 0.0486 | 0.0243 |
| Nc1ccc(-c2cnc(C3CCc4c5c(cc(=O)n43)-c3c(ccc(Cl)c3F)-c3ccccc3NC5=O)[nH]2)c(F)n1 (single isomer, unassigned) [Compound 38, (R*)-3-(5-(6-amino-2-fluoropyridin-3-yl)-1H-imidazol-2-yl)-8-chloro-7-fluoro-2,3-dihydrodibenzo[5,6:7,8]azocino[4,3-g]indolizine-5,16(1H,15H)-dione] | 1620 |  |  | 0.0372 | 0.0186 |
| O=C1NC2(CC2)Cc2ccc(Cl)c(F)c2-c2cc(=O)n(C(CC3CC3)c3ncc(-c4cc[n+]([O-])cc4)[nH]3)cc21 (single isomer, unassigned) [Compound 56, (S*)-4-(2-(1-(11-chloro-12-fluoro-2,5-dioxo-2,5,6,8-tetrahydro-3H-spiro[benzo[e]pyrido[3,4-c]azocine-7,1′-cyclopropan]-3-yl)-2-cyclopropylethyl)-1H-imidazol-5-yl)pyridine 1-oxide] | > 10000 |  |  | 0.882 | 0.441 |
| Nc1ccc(-c2cnc(C3CCc4c5c(cc(=O)n43)-c3cc(Cl)ccc3CC3(CC3)NC5=O)[nH]2)c(F)n1 (stereo not drawn) [Compound 2, 12-(5-(6-amino-2-fluoropyridin-3-yl)-1H-imidazol-2-yl)-7-chloro-13,14-dihydro-2H-spiro[benzo[5,6]azocino[4,3-g]indolizine-3,1′-cyclopropane]-1,10(4H,12H)-dione] | 470 |  |  | 0.003 | 0.0015 |
| Nc1ccc(-c2cnc([C@@H]3CCc4c5c(cc(=O)n43)-c3c(ccc(Cl)c3F)CCNC5=O)[nH]2)c(Cl)n1 (stereo in doubt) [Compound 49, (S*)-12-(5-(6-amino-2-chloropyridin-3-yl)-1H-imidazol-2-yl)-7-chloro-8-fluoro-3,4,13,14-tetrahydrobenzo[5,6]azocino[4,3-g]indolizine-1,10(2H,12H)-dione] | > 10000 | 1.29 | 2.59 |  |  |
| Cn1ccc(-c2cnc(C(CC3CC3)n3cc4c(cc3=O)-c3c(ccc(Cl)c3F)CC3(CC3)NC4=O)[nH]2)cc1=O (single isomer, unassigned) [Compound 68, (R*)-11-chloro-3-(2-cyclopropyl-1-(5-(1-methyl-2-oxo-1,2-dihydropyridin-4-yl)-1H-imidazol-2-yl)ethyl)-12-fluoro-3H-spiro[benzo[e]pyrido[3,4-c]azocine-7,1′-cyclopropane]-2,5(6H,8H)-dione] | > 10000 | 1.12 | 2.24 |  |  |
